Source: patent US20230141433A1, “TRICYCLIC PESTICIDAL COMPOUNDS” (BASF SE, priority 2020, published 2023)

How the values were obtained:
Type in all cases: in vivo
[1] = test system: boll weevil (Anthonomus grandis); assay: Boll weevil (Anthonomus grandis) egg and larval mortality, insect diet in 96-well microtiter plates; conditions: 120 h, 5 days, read-out: mortality in comparison with untreated controls (egg and larval mortality)
Method: (§1) If not otherwise specified, the test solutions are prepared as follows: The active compound is dissolved at the desired concentration in a mixture of 1:1 (vol:vol) distilled water:acetone. The test solution is prepared at the day of use. Test solutions are prepared in general at concentrations of 2500 ppm, 1000 ppm, 800 ppm, 500 ppm, 300 ppm, 100 ppm and 30 ppm (wt/vol).
Boll Weevil (Anthonomus grandis)
(§2) For evaluating control of boll weevil (Anthonomus grandis) the test unit consisted of 96-well-microtiter plates containing an insect diet and 5-10 A. grandis eggs. The compounds were formula ted using a solution containing 75% v/v water and 25% v/v DMSO. Different concentrations of formulated compounds were sprayed onto the insect diet at 5 μl, using a custom built micro atomizer, at two replications. After application, microtiter plates were incubated at about 25±1° C. and about 75±5% relative humidity for 5 days. Egg and larval mortality was then visually assessed.

[2] = test system: tobacco budworm (Heliothis virescens); assay: Tobacco budworm (Heliothis virescens) egg and larval mortality, insect diet in 96-well microtiter plates; conditions: 120 h, 5 days, read-out: mortality in comparison with untreated controls (egg and larval mortality)
Method: as §1
Tobacco Budworm (Heliothis virescens)
as §2, with “of tobacco budworm (Heliothis virescens)” for “of boll weevil (Anthonomus grandis)”, “and 15-25 H. virescens” for “and 5-10 A. grandis”, “were formulated” for “were formula ted”, “at 10” for “at 5”, “about 28±1°” for “about 25±1°”, “about 80±5%” for “about 75±5%”

[3] = test system: yellow fever mosquito (Aedes aegypti); assay: whole plant or invertebrate; conditions: 48 h, 2 days, read-out: mortality in comparison with untreated controls (larval mortality)
Method: as §1
Yellow Fever Mosquito (Aedes aegypti)
For evaluating control of yellow fever mosquito (Aedes aegypti) the test unit consisted of 96-well-microtiter plates containing 200 μl of tap water per well and 5-15 freshly hatched A. aegypti larvae. The active compounds were formulated using a solution containing 75% (v/v) water and 25% (v/v) DMSO. Different concentrations of formulated compounds or mixtures were sprayed onto the insect diet at 2.5 μl, using a custom built micro atomizer, at two replications. After application, microtiter plates were incubated at 28±1° C., 80±5% RH for 2 days. Larval mortality was then visually assessed.

[4] = test system: vetch aphid (Megoura viciae); assay: Vetch aphid (Megoura viciae) contact or systemic test on broad bean leaf disks; conditions: foliar, 120 h, 5 days, read-out: mortality in comparison with untreated controls (aphid mortality)
Method: as §1
Vetch Aphid (Megoura viciae)
For evaluating control of vetch aphid (Megoura viciae) through contact or systemic means the test unit consisted of 24-well-microtiter plates containing broad bean leaf disks.
The compounds were formulated using a solution containing 75% v/v water and 25% v/v DMSO. Different concentrations of formulated compounds were sprayed onto the leaf disks at 2.5 μl, using a custom built micro atomizer, at two replications. After application, the leaf disks were air-dried and 5-8 adult aphids placed on the leaf disks inside the microtiter plate wells. The aphids were then allowed to suck on the treated leaf disks and incubated at about 23±1° C. and about 50±5% relative humidity for 5 days. Aphid mortality and fecundity was then visually assessed.

[5] = test system: green peach aphid (Myzus persicae); assay: Green peach aphid (Myzus persicae) systemic test, artificial diet under membrane; conditions: 72 h, 3 days, read-out: mortality in comparison with untreated controls (aphid mortality)
Method: as §1
Green Peach Aphid (Myzus persicae) For evaluating control of green peach aphid (Myzus persicae) through systemic means the test unit consisted of 96-well-microtiter plates containing liquid artificial diet under an artificial membrane. The compounds were formulated using a solution containing 75% v/v water and 25% v/v DMSO. Different concentrations of formulated compounds were pipetted into the aphid diet, using a custom built pipetter, at two replications. After application, 5-8 adult aphids were placed on the artificial membrane inside the microtiter plate wells. The aphids were then allowed to suck on the treated aphid diet and incubated at about 23±1° C. and about 50±5% relative humidity for 3 days. Aphid mortality and fecundity was then visually assessed.

Row | Structure (SMILES) | mortality at 2500 ppm [1] | mortality at 2500 ppm [2] | mortality at 800 ppm [3] | mortality at 2500 ppm [4] | mortality at 2500 ppm [5] | mortality at 800 ppm [1] | mortality at 800 ppm [2] | mortality at 800 ppm [5]
1 | CCS(=O)(=O)c1c(-c2nc3cnc4c(OC(F)(F)F)cccc4c3n2C)nc2ccc(C(F)(F)F)cn12 [C-1] | > 75% | > 75% | ≥ 75% | > 75% | > 75% |  |  | 
2 | CCS(=O)(=O)c1c(-c2nc3cnc4c(C(F)(F)F)cccc4c3n2C)nc2ccc(C(F)(F)F)cn12 [C-2] | > 75% | > 75% | ≥ 75% | > 75% | > 75% |  |  | 
3 | CCS(=O)(=O)c1c(-c2nc3cnc4c(C(F)(F)F)cccc4c3n2C)nc2ccccn12 [C-3] | > 75% | > 75% | ≥ 75% | > 75% | > 75% |  |  | 
4 | CCS(=O)(=O)c1c(-c2nc3cnc4c(OC(F)(F)F)cccc4c3n2C)nc2ccccn12 [C-4, 2-(3-ethylsulfonylimidazo[1,2-a]pyridin-2-yl)-1-methyl-6-(trifluoromethoxy)imidazo[4,5-c]quinoline] | > 75% | > 75% | ≥ 75% | > 75% | > 75% |  |  | 
5 | CCS(=O)(=O)c1c(-c2nc3cnc4cc(C(F)(F)F)ccc4c3n2C)nc2ccccn12 [C-6] | > 75% | > 75% |  |  |  |  |  | 
6 | CCS(=O)(=O)c1c(-c2cn3c(ccc4c(C(F)(F)F)ccnc43)n2)nc2ccccn12 [C-7, 8-(3-ethylsulfonylimidazo[1,2-a]pyridin-2-yl)-4-(trifluoromethyl)imidazo[1,2-a][1,8]naphthyridine] | > 75% | > 75% | ≥ 75% |  | > 75% |  |  | 
7 | CCS(=O)(=O)c1c(-c2cn3c(ccc4c(C(F)(F)F)cc(C(F)(F)F)nc43)n2)nc2ccc(C(F)(F)F)cn12 [C-8] |  |  |  |  |  | > 75% | > 75% | 
8 | CCS(=O)(=O)c1c(-c2cn3c(ccc4c(C(F)(F)F)ccnc43)n2)nc2ccc(C(F)(F)F)cn12 [C-9] |  |  | ≥ 75% |  |  | > 75% | > 75% | > 75%
9 | CCS(=O)(=O)c1c(-c2cn3c(ccc4c(C(F)(F)F)ccnc43)n2)nn2ccccc12 [C-10] |  |  |  |  |  | > 75% |  | > 75%
10 | CCS(=O)(=O)c1c(-c2nc3cc(C(F)(F)F)c4ncccc4c3n2C)nc2ccccn12 [C-11, 2-(3-ethylsulfonylimidazo[1,2-a]pyridin-2-yl)-1-methyl-5-(trifluoromethyl)imidazo[4,5-f]quinoline] |  |  |  |  |  | > 75% | > 75% | > 75%
11 | CCS(=O)(=O)c1c(-c2nc3cnc4c(C(F)(F)F)cccc4c3n2C)nc2n1CCCC2 [C-12] |  |  | ≥ 75% |  |  | > 75% | > 75% | > 75%
12 | CCS(=O)(=O)c1c(-c2nc3cnc4cc(OC(F)(F)F)ccc4c3n2C)nc2n1CCCC2 [C-14] |  |  |  |  |  |  | > 75% | > 75%
13 | CCS(=O)(=O)c1c(-c2nc3cnc4cc(OC(F)(F)F)ccc4c3n2C)nc2ncccn12 [C-15] |  |  |  |  |  |  |  | > 75%
14 | CCS(=O)(=O)c1c(-c2nc3cnc4c(C(F)(F)F)cccc4c3n2C)nc2ncccn12 [C-16] |  |  |  |  |  |  |  | > 75%
15 | CCS(=O)(=O)c1c(-c2nc3cnc4c(OC(F)(F)F)cccc4c3n2C)nc2ncccn12 [C-17] |  |  |  |  |  |  |  | > 75%
16 | CCS(=O)(=O)c1c(-c2nc3cnc4cc(C(F)(F)F)ccc4c3n2C)nc2ncccn12 [C-18] |  |  |  |  |  |  | > 75% | 
17 | CCS(=O)(=O)c1c(-c2nc3cnc4c(C(F)(F)F)cccc4c3n2C)nn2ccccc12 [C-19] |  |  | ≥ 75% |  |  | > 75% | > 75% | > 75%
18 | CCS(=O)(=O)c1c(-c2nc3cnc4cc(C(F)(F)F)ccc4c3n2C)nn2ccccc12 [C-20] |  |  |  |  |  | > 75% | > 75% | 
19 | CCS(=O)(=O)c1c(-c2nc3cnc4c(OC(F)(F)F)cccc4c3n2C)nn2ccc(C(C)(C)C#N)cc12 [C-22] |  |  |  |  |  | > 75% | > 75% | > 75%
20 | CCS(=O)(=O)c1c(-c2nc3cnc4cc(OC(F)(F)F)ccc4c3n2C)nn2ccc(C(C)(C)C#N)cc12 [C-23] |  |  |  |  |  | > 75% | > 75% | 
21 | CCS(=O)(=O)c1c(-c2nc3cnc4cc(C(F)(F)F)ccc4c3n2C)nc2ccc(Br)cn12 [C-27] |  |  | ≥ 75% |  |  | > 75% | > 75% | 
22 | CCS(=O)(=O)c1c(-c2nc3cnc4c(C(F)(F)F)cccc4c3n2C)nc2ccc(Br)cn12 [C-28] |  |  | ≥ 75% |  |  | > 75% | > 75% | > 75%
23 | CCS(=O)(=O)c1c(-c2nc3cnc4cc(OC(F)(F)F)ccc4c3n2C)nn2ccccc12 [C-29] |  |  | ≥ 75% |  |  | > 75% | > 75% | > 75%
